Reference: PMC8672371 (Biochemistry, 2021)
Changes are numbered by the printed parent chain.

Assays:
NvVip = NvVip (Nematostella vectensis, UniProt A7RNF3); assay: X-ray crystal structure; type: binding; details: 1.42 Å, [4Fe-4S], anaerobic, active site
RnVip [1] = molecular target: T1, RnVip (Rattus norvegicus, UniProt O70600, K317A); assay: ddhCTP formation; type: biochemical; details: SAM, dithionite
T1 sequence (O70600 1-360 K317A): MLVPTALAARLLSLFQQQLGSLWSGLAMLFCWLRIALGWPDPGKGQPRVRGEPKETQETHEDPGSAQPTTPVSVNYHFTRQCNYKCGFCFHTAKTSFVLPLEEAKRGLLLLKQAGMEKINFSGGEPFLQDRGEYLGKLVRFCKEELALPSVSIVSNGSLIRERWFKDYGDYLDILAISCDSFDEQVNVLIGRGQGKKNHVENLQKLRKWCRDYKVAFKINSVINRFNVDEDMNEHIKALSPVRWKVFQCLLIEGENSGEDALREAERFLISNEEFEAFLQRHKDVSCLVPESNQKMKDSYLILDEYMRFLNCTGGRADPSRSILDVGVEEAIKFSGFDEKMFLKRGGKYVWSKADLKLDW

MlVip = MlVip (Methanofollis liminatans, UniProt J0S9F5); assay: ddhNTP product by LC-MS; type: biochemical; details: SAM, dithionite; labelled compound (deuCTP)
RnVip [2] = molecular target: T2, RnVip (Rattus norvegicus, UniProt O70600, H77A); assay: ddhCTP formation; type: biochemical; details: SAM, dithionite
T2 sequence (O70600 1-360 H77A): T1 sequence (O70600 1-360 K317A) with H77A, A317K

TvVip = TvVip (Trichoderma virens, UniProt G9MQB8); assay: X-ray crystal structure; type: binding; details: 3.2 Å; complex with SAM; active site

Q: Which results are given for `Nc1ccn([C@@H]2O[C@H](COP(=O)(O)OP(=O)(O)OP(=O)(O)O)[C@@H](O)[C@H]2O)c(=O)n1` [CTP]?
A: X-ray crystal structure (NvVip; complex with SAM): omit maps show strong density for CTP in the catalytic site; ddhCTP formation (RnVip [1]): we generated a lysine to alanine variant in RnVip (K317A; ddhNTP product by LC-MS; deu5'-dA formation (MlVip): only deuCTP was converted to the respective ddhNTP product by MlVip; ddhCTP formation (RnVip [2]): We generated the RnVip variant H77A and the MmVip variant H79A

Q: With `C[S+](CC[C@H](N)C(=O)O)C[C@H]1O[C@@H](n2cnc3c(N)ncnc32)[C@H](O)[C@@H]1O` (stereo partly drawn) [SAM] as the compound, how does the X-ray crystal structure (NvVip; complex with CTP) read?
A: The asymmetric unit of NvVip contains one protein chain, a 4Fe-4S cluster, CTP, and SAM

Q: `O=c1ccn([C@@H]2O[C@H](COP(=O)(O)OP(=O)(O)OP(=O)(O)O)[C@@H](O)[C@H]2O)c(=O)[nH]1` [UTP] was tested. Which X-ray crystal structure (TvVip) did it give?
A: Crystals of TvVip bound to SAM and UTP exhibited diffraction
